# Assay results taken from patent US10214609B2, “Polyglyoxylates, manufacture and use thereof” (THE UNIVERSITY OF WESTERN ONTARIO, priority 2014, dated 2019).
# What was measured:
# [1] = NMR degradation study of the micelles; type: physicochemical; conditions: over 24 h at 37° C., pH 7.4 buffered D2O
# Experimental: 16 mg of block copolymer 21 b was fully dissolved in 0.8 mL of DMSO-d6. 0.2 mL of the resulting solution was rapidly injected into 1.0 mL of 100 mM, pH 7.4 phosphate or 100 mM, pH 5.0 citrate buffered D2O. After stirring for 0.5 h, the micelle suspension was transferred into two NMR tubes. One tube was then irradiated for 10 min in with UV light (wavelength: 300-350 nm, 23 mW cm^−2), while the other one was kept in the dark. A ^1H NMR spectrum was obtained immediately following irradiation (10 min time point in the graph), then the samples were incubated at 37° C. and spectra were obtained at regular intervals over 24 h. Complete depolymerization was confirmed for the irradiated sample as the sum of the integration of the methyl peaks corresponding to EtGH and ethanol (1.0-1.2 ppm) plateaud at a very similar (1198) value to that of the methyl peak at 1.17-1.45 ppm in the block copolymer 21b taken in CDCl3 (integration 1152) when setting the PEG peak integral to 364. The % polymer remaining was calculated as 100−(sum of integration from 1.0-1.2 ppm/1198))*100.
# [2] = Nile red encapsulation and triggered release from micelles; conditions: dissolved in ethanol, same irradiation periods
# [3] = Thermogravimetric analysis (TGA) of polymers; type: physicochemical
# Excerpt: Ethyl glyoxylate in toluene solution (50% w/w), phenyl isocyanate, dibutyltin dilaurate (DBTL), benzyl chloroformate, 4-dimethylaminopyridine (DMAP), 4-bromomethyl-3-nitrobenzoic acid, methanesulfonyl chloride and benzyl bromide were obtained from Alfa Aesar (Canada). Fumaric acid and maleic acid were purchased from Acros Organics (USA). 6-Nitroveratryl chloroformate (NVOC-Cl) was obtained from Chem-Impex International, Inc. (USA). Propargyl amine was purchased from AK Scientific, Inc. (USA). 4-(Hydroxymethyl)phenylboronic acid pinacol ester and hydrogen peroxide solution (50 wt %) in water, hydrazine hydrate, dimethyl sulfide, sodium azide (NaN3), tin (II)chloride dehydrate, phosgene solution (15 wt. % in toluene), nile red and poly(ethylene glycol) methyl ether (MW=5000 g/mol, 2000 g/mol and 750 g/mol) were purchased from Sigma-Aldrich (USA). 1-Ethyl-3-(3-dimethylaminopropyl) carbodiimide hydrochloride (EDC.HCl) was purchased from Creo Salus (USA). Thionyl chloride (Alfa Aesar) was distilled under argon prior to use. Triethylamine (Et3N), pyridine, and dichloromethane were distilled from calcium hydride before use. Anhydrous tetrahydrofuran (THF) and N,N-dimethylformamide (DMF) were obtained from a solvent purification system using aluminum oxide columns. All the other chemicals were of reagent grade and used without further purification. ^1H NMR spectra were obtained in CDCl3 at 400 MHz or 600 MHz on Varian Inova instruments. NMR chemical shifts (δ) are reported in ppm and are calibrated against residual solvent signals of CDCl3 (δ 7.27), acetonitrile-d3 (δ 1.94), DMSO-d6 (δ 2.50) or deuterium oxide (δ 4.75). Fourier transform infrared spectra (FT-IR) were obtained using a Bruker tensor 27 instrument with films drop cast from CH2Cl2 on KBr plates. High-resolution mass spectrometry (HRMS) was performed using a Finnigan MAT 8400 electron impact (EI) mass spectrometer. The SEC instrument was equipped with a Viscotek GPC Max VE2001 solvent module. Samples were analyzed using the Viscotek VE3580 RI detector operating at 30° C. The separation technique employed two Agilent Polypore (300×7.5 mm) columns connected in series and to a Polypore guard column (50×7.5 mm). Samples were dissolved in THF (glass distilled grade) in approximately 5 mg/mL concentrations and filtered through 0.22 μm syringe filters. Samples were injected using a 100 μL loop. The THF eluent was filtered and eluted at 1 ml/min for a total of 30 minutes. A calibration curve was obtained from Polystyrene samples with molecular weight ranges of 1,540-1,126,000/mol Differential scanning calorimetry (DSC) and thermogravimetric analysis (TGA) were performed on a Mettler Toledo DSC 822e. For TGA the heating rate was 10° C./min between 50-400° C. under nitrogen. For DSC, the heating/cooling rate was 10° C./min from −100 to +17° C. Glass transition temperatures were obtained from the second heating cycle. Ultrapure water was obtained from a Barnstead EASYpure II system. Dialyses were performed using Spectra/Por regenerated cellulose membranes with 3500 g/mol MWCO.
Change of fluorescence intensity on irradiation (photostability) [2],To (onset degradation temperature) [3] [°C],Tp (peak degradation temperature) [3] [°C],Molecule,Hydrolysis to glyoxylic acid and ethanol [1] [%]
–,–,–,"CCOC(=O)C=O.O [EtGH, ethyl glyoxylate hydrate]",~45
no detectable decrease in intensity,–,–,CCN(CC)c1ccc2nc3c4ccccc4c(=O)cc-3oc2c1 [nile red],–
–,181,203,PEtG-co-poly(methyl glyoxylate) [Polymer 14],–
–,208,236,PEtG-co-poly(n-butyl glyoxylate) [Polymer 15],–
–,195,229,poly(benzyl glyoxylate) [Polymer 13],–
